From patent US6908935B2, “Calcium receptor modulating agents” (Amgen Inc., priority 2002, dated 2005)

Target: T1, human parathyroid cell Ca^2+ receptor (hPCaR) (Homo sapiens, UniProt P41180)
T1 construct: expressed in transfected cells
T1 sequence (P41180 20-1078): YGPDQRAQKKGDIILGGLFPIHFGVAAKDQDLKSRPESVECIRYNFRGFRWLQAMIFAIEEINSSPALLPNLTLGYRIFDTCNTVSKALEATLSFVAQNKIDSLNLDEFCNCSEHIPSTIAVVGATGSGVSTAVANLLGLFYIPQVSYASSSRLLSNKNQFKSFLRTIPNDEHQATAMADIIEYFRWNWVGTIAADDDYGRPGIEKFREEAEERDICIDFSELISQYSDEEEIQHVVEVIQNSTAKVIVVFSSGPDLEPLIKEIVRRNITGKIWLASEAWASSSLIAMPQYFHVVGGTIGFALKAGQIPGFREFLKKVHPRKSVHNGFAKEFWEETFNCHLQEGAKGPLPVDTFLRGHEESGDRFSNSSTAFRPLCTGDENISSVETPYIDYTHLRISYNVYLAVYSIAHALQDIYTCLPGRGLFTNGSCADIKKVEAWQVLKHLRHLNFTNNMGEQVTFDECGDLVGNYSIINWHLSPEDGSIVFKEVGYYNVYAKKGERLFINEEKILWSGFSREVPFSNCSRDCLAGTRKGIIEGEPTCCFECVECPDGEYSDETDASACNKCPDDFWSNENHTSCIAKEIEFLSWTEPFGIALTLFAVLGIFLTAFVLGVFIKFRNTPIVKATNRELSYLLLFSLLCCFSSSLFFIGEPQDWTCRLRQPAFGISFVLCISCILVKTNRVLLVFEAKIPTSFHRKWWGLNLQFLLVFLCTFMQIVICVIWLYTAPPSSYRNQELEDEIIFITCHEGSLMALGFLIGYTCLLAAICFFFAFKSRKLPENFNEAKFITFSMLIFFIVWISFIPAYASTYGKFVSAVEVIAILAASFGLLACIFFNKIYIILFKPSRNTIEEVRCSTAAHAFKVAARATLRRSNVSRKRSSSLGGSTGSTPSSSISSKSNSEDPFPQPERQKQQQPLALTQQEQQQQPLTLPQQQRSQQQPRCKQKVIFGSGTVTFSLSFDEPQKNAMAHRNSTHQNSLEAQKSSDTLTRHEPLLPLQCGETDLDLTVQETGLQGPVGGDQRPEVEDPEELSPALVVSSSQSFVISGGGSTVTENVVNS
Assay: [Ca2+]i measurement with fluo-3 in HEK 293 4.0-7 cells stably transfected with hPCaR
Format: cell-based
Conditions: fluo-3 fluorescence (485/530 nm), effect on [Ca^2+]i
Method in brief: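 Cytosolic [Ca2+] was read as fluo-3 fluorescence (ex 485/em 530 nm) after compound addition to washed cells. Cells were hPCaR-transfected HEK 293 clone 7, dye-loaded 30 min at 37 °C with 2 μM fluo-3 acetoxymethyl ester in HEPES-buffered saline pH 7.45 containing 1 mM CaCl2 and 0.5% BSA.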

| Compound | EC50 [µM] |
| --- | --- |
| CCOc1ccc(CN[C@H](C)c2ccccc2)cc1-c1ccc(OC)cc1 [(1R)-N-((6-(ethyloxy)-4′-(methyloxy)-1,1′-biphenyl-3-yl)methyl)-1-phenylethanamine] | ≤ 10 |
| COc1cccc([C@@H](C)NCc2ccc(OC)c(-c3ccccc3)c2)c1 [(1R)-N-((6-(methyloxy)-1,1′-biphenyl-3-yl)methyl)-1-(3-(methyloxy)phenyl)ethanamine] | ≤ 10 |
| COc1ccc([C@@H](C)NCc2ccc(OC)c(-c3ccccc3)c2)cc1 [(1R)-N-((6-(methyloxy)-1,1′-biphenyl-3-yl)methyl)-1-(4-(methyloxy)phenyl)ethanamine] | ≤ 10 |
| COc1ccc(CN[C@H](C)c2ccc(C)cc2)cc1-c1ccccc1 [(1R)-N-((6-(methyloxy)-1,1′-biphenyl-3-yl)methyl)-1-(4-methylphenyl)ethanamine] | ≤ 10 |
| COc1ccc(CN[C@H](C)c2cccc3ccccc23)cc1-c1cccc(OC(F)(F)F)c1 [(1R)-N-((6-(methyloxy)-3′-((trifluoromethyl)oxy)-1,1′-biphenyl-3-yl)methyl)-1-(1-naphthalenyl)ethanamine] | ≤ 10 |
| COc1ccc(CN[C@H](C)c2ccccc2)cc1-c1cccc(OC(F)(F)F)c1 [(1R)-N-((6-(methyloxy)-3′-((trifluoromethyl)oxy)-1,1′-biphenyl-3-yl)methyl)-1-phenylethanamine] | ≤ 10 |
| COc1ccc(CN[C@H](C)c2cccc3ccccc23)cc1-c1cccc(C(F)(F)F)c1 [(1R)-N-((6-(methyloxy)-3′-(trifluoromethyl)-1,1′-biphenyl-3-yl)methyl)-1-(1-naphthalenyl)ethanamine] | ≤ 10 |
| COc1ccc(CN[C@H](C)c2ccccc2)cc1-c1cccc(C(F)(F)F)c1 [(1R)-N-((6-(methyloxy)-3′-(trifluoromethyl)-1,1′-biphenyl-3-yl)methyl)-1-phenylethanamine] | ≤ 10 |
| COc1ccc(CN[C@H](C)c2cccc3ccccc23)cc1-c1ccc(OC(F)(F)F)cc1 [(1R)-N-((6-(methyloxy)-4′-((trifluoromethyl)oxy)-1,1′-biphenyl-3-yl)methyl)-1-(1-naphthalenyl)ethanamine] | ≤ 10 |
| COc1ccc(CN[C@H](C)c2ccccc2)cc1-c1ccc(OC(F)(F)F)cc1 [(1R)-N-((6-(methyloxy)-4′-((trifluoromethyl)oxy)-1,1′-biphenyl-3-yl)methyl)-1-phenylethanamine] | ≤ 10 |
| COc1ccc(CN[C@H](C)c2cccc3ccccc23)cc1-c1ccc(S(C)(=O)=O)cc1 [(1R)-N-((6-(methyloxy)-4′-(methylsulfonyl)-1,1′-biphenyl-3-yl)methyl)-1-(1-naphthalenyl)ethanamine] | ≤ 10 |
| COc1cccc([C@@H](C)NCc2ccc(OC)c(-c3ccc(S(C)(=O)=O)cc3)c2)c1 [(1R)-N-((6-(methyloxy)-4′-(methylsulfonyl)-1,1′-biphenyl-3-yl)methyl)-1-(3-(methyloxy)phenyl)ethanamine] | ≤ 10 |
| COc1ccc(CN[C@H](C)c2ccccc2)cc1-c1ccc(S(C)(=O)=O)cc1 [(1R)-N-((6-(methyloxy)-4′-(methylsulfonyl)-1,1′-biphenyl-3-yl)methyl)-1-phenylethanamine] | ≤ 10 |
| COc1ccc(CN[C@H](C)c2cccc3ccccc23)cc1-c1ccc(C(F)(F)F)cc1 [(1R)-N-((6-(methyloxy)-4′-(trifluoromethyl)-1,1′-biphenyl-3-yl)methyl)-1-(1-naphthalenyl)ethanamine] | ≤ 10 |
| COc1ccc(CN[C@H](C)c2ccccc2)cc1-c1ccc(C(F)(F)F)cc1 [(1R)-N-((6-(methyloxy)-4′-(trifluoromethyl)-1,1′-biphenyl-3-yl)methyl)-1-phenylethanamine] | ≤ 10 |
| C[C@@H](NCc1ccc(Cl)c(-c2ccc(OC(F)(F)F)cc2)c1)c1cccc2ccccc12 [(1R)-N-((6-chloro-4′-((trifluoromethyl)oxy)-1,1′-biphenyl-3-yl)methyl)-1-(1-naphthalenyl)ethanamine] | ≤ 10 |
| COc1cccc([C@@H](C)NCc2ccc(Cl)c(-c3ccc(OC(F)(F)F)cc3)c2)c1 [(1R)-N-((6-chloro-4′-((trifluoromethyl)oxy)-1,1′-biphenyl-3-yl)methyl)-1-(3-(methyloxy)phenyl)ethanamine] | ≤ 10 |
| C[C@@H](NCc1ccc(Cl)c(-c2ccc(OC(F)(F)F)cc2)c1)c1ccccc1 [(1R)-N-((6-chloro-4′-((trifluoromethyl)oxy)-1,1′-biphenyl-3-yl)methyl)-1-phenylethanamine] | ≤ 10 |

| Compound | EC50 [µM] |
| --- | --- |
| C[C@@H](NCc1ccc(Cl)c(-c2ccc(C(F)(F)F)cc2)c1)c1cccc2ccccc12 [(1R)-N-((6-chloro-4′-(trifluoromethyl)-1,1′-biphenyl-3-yl)methyl)-1-(1-naphthalenyl)ethanamine] | ≤ 10 |
| C[C@@H](NCc1ccc(Cl)c(-c2ccc(C(F)(F)F)cc2)c1)c1ccccc1 [(1R)-N-((6-chloro-4′-(trifluoromethyl)-1,1′-biphenyl-3-yl)methyl)-1-phenylethanamine] | ≤ 10 |
| COc1ccc(-c2cc(CN[C@H](C)c3cccc(OC)c3)ccc2F)cc1 [(1R)-N-((6-fluoro-4′-(methyloxy)-1,1′-biphenyl-3-yl)methyl)-1-(3-(methyloxy)phenyl)ethanamine] | ≤ 10 |
| COc1ccc(-c2cc(CN[C@H](C)c3ccc(OC)cc3)ccc2F)cc1 [(1R)-N-((6-fluoro-4′-(methyloxy)-1,1′-biphenyl-3-yl)methyl)-1-(4-(methyloxy)phenyl)ethanamine] | ≤ 10 |
| COc1ccc(-c2cc(CN[C@H](C)c3ccc(C)cc3)ccc2F)cc1 [(1R)-N-((6-fluoro-4′-(methyloxy)-1,1′-biphenyl-3-yl)methyl)-1-(4-methylphenyl)ethanamine] | ≤ 10 |
| C[C@@H](NCc1ccc(F)c(-c2ccc(C(F)(F)F)cc2)c1)c1ccccc1 [(1R)-N-((6-fluoro-4′-(trifluoromethyl)-1,1′-biphenyl-3-yl)methyl)-1-phenylethanamine] | ≤ 10 |
| C[C@@H](NCc1ccc(I)c(-c2ccc(C(F)(F)F)cc2)c1)c1cccc2ccccc12 [(1R)-N-((6-iodo-4′-(trifluoromethyl)-1,1′-biphenyl-3-yl)methyl)-1-(1-naphthalenyl)ethanamine] | ≤ 10 |
| COc1cccc([C@@H](C)NCc2ccc(I)c(-c3ccc(C(F)(F)F)cc3)c2)c1 [(1R)-N-((6-iodo-4′-(trifluoromethyl)-1,1′-biphenyl-3-yl)methyl)-1-(3-(methyloxy)phenyl)ethanamine] | ≤ 10 |
| C[C@@H](NCc1ccc(I)c(-c2ccc(C(F)(F)F)cc2)c1)c1ccccc1 [(1R)-N-((6-iodo-4′-(trifluoromethyl)-1,1′-biphenyl-3-yl)methyl)-1-phenylethanamine] | ≤ 10 |
| COc1ccc(CN[C@@H](C)c2ccccc2)cc1-c1ccc(C(F)(F)F)cc1 [(1S)-N-((6-(methyloxy)-4′-(trifluoromethyl)-1,1′-biphenyl-3-yl)methyl)-1-phenylethanamine] | ≤ 10 |
| C[C@@H](NCc1cccc(-c2nccs2)c1)c1cccc2ccccc12 [Example 217, (1R)-1-(1-naphthalenyl)-N-((3-(1,3-thiazol-2-yl)phenyl)methyl)ethanamine] | ≤ 10 |
| C[C@@H](NCc1cccc(-c2nccs2)c1)c1ccccc1 [Example 218, (1R)-1-phenyl-N-((3-(1,3-thiazol-2-yl)phenyl)methyl)ethanamine] | ≤ 10 |
| COc1cccc([C@@H](C)NCc2cccc(-c3ccoc3)c2)c1 [Example 222, (1R)-N-((3-(3-furanyl)phenyl)methyl)-1-(3-(methyloxy)phenyl)ethanamine] | ≤ 10 |
| COc1ccc([C@@H](C)NCc2cccc(-c3ccoc3)c2)cc1 [Example 223, (1R)-N-((3-(3-furanyl)phenyl)methyl)-1-(4-(methyloxy)phenyl)ethanamine] | ≤ 10 |
| Cc1ccc([C@@H](C)NCc2cccc(-c3ccoc3)c2)cc1 [Example 224, (1R)-N-((3-(3-furanyl)phenyl)methyl)-1-(4-methylphenyl)ethanamine] | ≤ 10 |
| C[C@@H](NCc1cccc(-c2ccoc2)c1)c1cccc2ccccc12 [Example 225, (1R)-N-((3-(3-furanyl)phenyl)methyl)-1-(1-naphthalenyl)ethanamine] | ≤ 10 |
| C[C@@H](NCc1cccc(-c2ccoc2)c1)c1ccccc1 [Example 226, (1R)-N-((3-(3-furanyl)phenyl)methyl)-1-phenylethanamine] | ≤ 10 |
